Assay results taken from PubChem BioAssay (NCI).
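Where inhibition never reached the appropriate level, the endpoint shown equals the highest concentration tested. Otherwise, values were interpolated linearly from a five-concentration, 48-hour dose response in 96-well plates. GI50 is the concentration that inhibits growth by half. TGI is the concentration that stops growth completely.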

How the values were obtained:
Assay in all cases: NCI-60 cell line screen, 48 h
786-0 renal = tested on: 786-0 renal
A498 renal = tested on: A498 renal
A549 NSCLC = tested on: A549 NSCLC
ACHN renal = tested on: ACHN renal
BT-549 breast = tested on: BT-549 breast
CAKI-1 renal = tested on: CAKI-1 renal
CCRF-CEM leukemia = tested on: CCRF-CEM leukemia
COLO 205 colon = tested on: COLO 205 colon
DU-145 prostate = tested on: DU-145 prostate
HCC-2998 colon = tested on: HCC-2998 colon
HCT-116 colon = tested on: HCT-116 colon
HCT-15 colon = tested on: HCT-15 colon
HL-60(TB) leukemia = tested on: HL-60(TB) leukemia
HOP-62 NSCLC = tested on: HOP-62 NSCLC
HS 578T breast = tested on: HS 578T breast
HT29 colon = tested on: HT29 colon
IGROV1 ovarian = tested on: IGROV1 ovarian
K-562 leukemia = tested on: K-562 leukemia
KM12 colon = tested on: KM12 colon
M14 melanoma = tested on: M14 melanoma
MALME-3M melanoma = tested on: MALME-3M melanoma
MCF7 breast = tested on: MCF7 breast
MDA-MB-231 breast = tested on: MDA-MB-231 breast
MDA-MB-435 = tested on: MDA-MB-435
MOLT-4 leukemia = tested on: MOLT-4 leukemia
NCI-H226 lung = tested on: NCI-H226 lung
NCI-H23 lung = tested on: NCI-H23 lung
NCI-H460 lung = tested on: NCI-H460 lung
NCI-H522 lung = tested on: NCI-H522 lung
NCI/ADR-RES ovarian = tested on: NCI/ADR-RES ovarian
OVCAR-3 ovarian = tested on: OVCAR-3 ovarian
OVCAR-4 ovarian = tested on: OVCAR-4 ovarian
OVCAR-5 ovarian = tested on: OVCAR-5 ovarian
OVCAR-8 ovarian = tested on: OVCAR-8 ovarian
PC-3 prostate = tested on: PC-3 prostate
RPMI-8226 leukemia = tested on: RPMI-8226 leukemia
RXF 393 renal = tested on: RXF 393 renal
SF-268 CNS = tested on: SF-268 CNS
SF-295 CNS = tested on: SF-295 CNS
SF-539 CNS = tested on: SF-539 CNS
SK-MEL-28 melanoma = tested on: SK-MEL-28 melanoma
SK-MEL-5 melanoma = tested on: SK-MEL-5 melanoma
SK-OV-3 ovarian = tested on: SK-OV-3 ovarian
SN12C renal = tested on: SN12C renal
SNB-19 CNS = tested on: SNB-19 CNS
SNB-75 CNS = tested on: SNB-75 CNS
SR leukemia = tested on: SR leukemia
SW-620 colon = tested on: SW-620 colon
T-47D breast = tested on: T-47D breast
TK-10 renal = tested on: TK-10 renal
UACC-257 melanoma = tested on: UACC-257 melanoma
UACC-62 melanoma = tested on: UACC-62 melanoma
UO-31 renal = tested on: UO-31 renal

## O=C(Cc1ccc(OCc2ccccc2)cc1)NCc1ccc2c(c1)OCO2
786-0 renal
  GI50: 30.3 µM
  TGI: > 100 µM
A498 renal
  GI50: > 100 µM
  TGI: > 100 µM
A549 NSCLC
  GI50: > 100 µM
  TGI: > 100 µM
ACHN renal
  GI50: > 100 µM
  TGI: > 100 µM
BT-549 breast
  GI50: > 100 µM
  TGI: > 100 µM
CAKI-1 renal
  GI50: > 100 µM
  TGI: > 100 µM
CCRF-CEM leukemia
  GI50: > 100 µM
  TGI: > 100 µM
COLO 205 colon
  GI50: 14.4 µM
  TGI: > 100 µM
DU-145 prostate
  GI50: > 100 µM
  TGI: > 100 µM
HCC-2998 colon
  GI50: > 100 µM
  TGI: > 100 µM
HCT-116 colon
  GI50: 30.1 µM
  TGI: > 100 µM
HCT-15 colon
  GI50: 5.31 µM
  TGI: > 100 µM
HL-60(TB) leukemia
  GI50: 9.3 µM
  TGI: > 100 µM
HOP-62 NSCLC
  GI50: 6.98 µM
  TGI: > 100 µM
HS 578T breast
  GI50: 9.82 µM
  TGI: > 100 µM
HT29 colon
  GI50: 37.9 µM
  TGI: > 100 µM
IGROV1 ovarian
  GI50: > 100 µM
  TGI: > 100 µM
K-562 leukemia
  GI50: 4.64 µM
  TGI: > 100 µM
KM12 colon
  GI50: 10.8 µM
  TGI: > 100 µM
M14 melanoma
  GI50: 7.71 µM
  TGI: > 100 µM
MALME-3M melanoma
  GI50: 29.2 µM
  TGI: > 100 µM
MCF7 breast
  GI50: 5.43 µM
  TGI: > 100 µM
MDA-MB-231 breast
  GI50: 59 µM
  TGI: > 100 µM
MDA-MB-435
  GI50: 2.32 µM
  TGI: 5.93 µM
MOLT-4 leukemia
  GI50: > 100 µM
  TGI: > 100 µM
NCI-H226 lung
  GI50: > 100 µM
  TGI: > 100 µM
NCI-H23 lung
  GI50: > 100 µM
  TGI: > 100 µM
NCI-H460 lung
  GI50: > 100 µM
  TGI: > 100 µM
NCI-H522 lung
  GI50: > 100 µM
  TGI: > 100 µM
NCI/ADR-RES ovarian
  GI50: 9.26 µM
  TGI: > 100 µM
OVCAR-3 ovarian
  GI50: > 100 µM
  TGI: > 100 µM
OVCAR-4 ovarian
  GI50: > 100 µM
  TGI: > 100 µM
OVCAR-5 ovarian
  GI50: > 100 µM
  TGI: > 100 µM
OVCAR-8 ovarian
  GI50: > 100 µM
  TGI: > 100 µM
PC-3 prostate
  GI50: > 100 µM
  TGI: > 100 µM
RPMI-8226 leukemia
  GI50: > 100 µM
  TGI: > 100 µM
RXF 393 renal
  GI50: 5.18 µM
  TGI: > 100 µM
SF-268 CNS
  GI50: 6.72 µM
  TGI: > 100 µM
SF-295 CNS
  GI50: 64.4 µM
  TGI: > 100 µM
SF-539 CNS
  GI50: 9.11 µM
  TGI: > 100 µM
SK-MEL-28 melanoma
  GI50: > 100 µM
  TGI: > 100 µM
SK-MEL-5 melanoma
  GI50: 70.7 µM
  TGI: > 100 µM
SK-OV-3 ovarian
  GI50: 8.18 µM
  TGI: > 100 µM
SN12C renal
  GI50: > 100 µM
  TGI: > 100 µM
SNB-19 CNS
  GI50: 41.9 µM
  TGI: > 100 µM
SNB-75 CNS
  GI50: 2.17 µM
  TGI: 6.53 µM
SR leukemia
  GI50: 5.23 µM
  TGI: > 100 µM
SW-620 colon
  GI50: 7.14 µM
  TGI: > 100 µM
T-47D breast
  GI50: 48.3 µM
  TGI: > 100 µM
TK-10 renal
  GI50: > 100 µM
  TGI: > 100 µM
UACC-257 melanoma
  GI50: > 100 µM
  TGI: > 100 µM
UACC-62 melanoma
  GI50: 14.3 µM
  TGI: > 100 µM
UO-31 renal
  GI50: > 100 µM
  TGI: > 100 µM
